Tested on: isoliert perfundierten Rattenherzens
Experiment: Isolated perfused rat heart (Langendorff), anoxia/reoxygenation, release of lactate dehydrogenase into the perfusate
Design: species or system Wistarratten
Details: for Freisetzung von Laktatdehydrogenase (großer initialer Enzymverlust) während der Reoxygenationsphase: closed circles, n = 4 hearts; for Enzymverlust nach anschließendem Auswaschen der Substanz: open circles
Description: Die pharmakologische Wirkung der erfindungsgemäßen Verbindungen der allgemeinen Formel I sowie des N-Morpholino-iminoacetonitrils wurden am Modell des isoliert perfundierten Rattenherzens untersucht.
Dazu wurden Herzen von 200 - 250 g schweren Wistarratten in einer temperaturkontrollierten Kammer (37°C) an ein Langendorff-Perfusionssystem gehängt. Die Kammer war während normoxischer Perfusionen mit Luft, während anoxischer mit 95 % N2 plus 5 % CO2 gefüllt. […] Für eine initiale Stabilisierungsperiode von 30 min wurden die Herzen mit einem oxygenierten salinen Medium perfundiert (Zusammensetzung in mM: 140.0 NaCl, 24.0 NaHCO3, 2.7 KCl, 0.4 NaH2PO4, 1.0 MgCl2, 1.8 CaCl2, 5.0 Glucose, äquilibriert mit 95 % O2 und 5 % CO2, pH 7.4). Für anoxische Perfusionen wurde diese initiale normoxische Stabilisierungsperiode gefolgt von 60 min Perfusion, mit einem Fluß von 5 ml/min von anoxoischem Medium (Zusammensetzung wie zuvor, aber ohne Glucose und äquilibriert mit 95 % N2 und 5 % CO2, pH 7.4). Die anoxisch perfundierten Herzen wurden nachfolgend durch Zurückschalten auf die initialen normoxischen Perfusionsbedingungen reoxygeniert.
In Versuchen mit den Testsubstanzen wurden diese dem anoxischen Perfusat während der letzten 15 min zugefügt. Die ersten 60 min der Reoxygenationsphase wurden ebenfalls in Gegenwart der Testsubstanzen durchgeführt. Danach wurde ohne diese Substanzen die normoxische Perfusion für weitere 45 min fortgesetzt.
Die Herzschädigung wurde charakterisiert durch die Freisetzung des zytosolischen Enzyms Laktatdehydrogenase (LDH) in das Perfusat. Während der Herzperfusion wurden 1-minütige Sammelproben des Effluats gesammelt. Die Aktivität von LDH wurde auch in Homogenaten ganzer Rattenherzen gemessen (präpariert in 100 mM Phosphatpuffer, pH 7.4, mit 1 % Triton X-100). […] Der Enzymverlust wurde in Prozenten der initialen Gesamtgewebsaktivitäten angegeben.

Structure (SMILES)	Freisetzung von Laktatdehydrogenase (großer initialer Enzymverlust) während der Reoxygenationsphase (reoxygenation after 60 min anoxia in presence of 20 mM test substance, Abbildung 1 C)	Enzymverlust nach anschließendem Auswaschen der Substanz (washout after reoxygenation in presence of 20 mM test substance, Abbildung 1 C)	Wirksamkeit im Vergleich zu BDM (relative to BDM (10 mM vs 20 mM))	Freisetzung von Laktatdehydrogenase (großer initialer Enzymverlust) während der Reoxygenationsphase (reoxygenation after 60 min anoxia in presence of 10 mM test substance, Abbildung 1 B)	reoxygenationsbedingte Myokardschädigung (summary of the results shown)	Enzymverlust nach anschließendem Auswaschen der Substanz (washout after reoxygenation in presence of 10 mM test substance, Abbildung 1 B)
CC(=O)C(C)=NO [Butandionmonoxim, reference compound]	weitgehend unterdrückt	geringen initialen Steigerung des Enzymverlustes				
N#CC=NN1CCOCC1 [N-Morpholino-iminoacetonitril]			etwa doppelt so hoch wie die von BDM	weitgehend unterdrückt	deutlich reduziert	keiner weiteren Steigerung des Enzymverlusts

From EP0687258B1, “SUBSTITUTED IMINOACETONITRILES WITH MYOCARDIAL PROTECTIVE EFFECT” (HOECHST AKTIENGESELLSCHAFT, priority 1993, dated 1994)
